Experimental data from patent US20250082653A1, “THERAPEUTIC PRODUCT IN THE FORM OF A DENTAL GEL” (CB21 PHARMA, S.R.O., priority 2021, published 2025).
≈ marks a conversion by molar mass, not a printed value.

Assays:
[1] = test system: Porphyromonas gingivalis CCM 3985; assay: MIC by microdilution method (CLSI M11), anaerobic; assay type: cell-based; settings: P. gingivalis, 60 h anaerobic incubation, three independent experiments
Experimental: (§1) Strains Streptococcus mutans CCM 7409 and Porphyromonas gingivalis CCM 3985 were selected for testing. Both were obtained from Czech Collection of Microorganisms (Brno). BHI+kh medium (Brain-heart infusion (Oxoid, UK) enriched with vitamin K (0.001 mg/ml) and hemin ([…])) was used to cultivate S. mutans, and for P. gingivalis medium WCHA—Wilkins-Chalgren agar (HiMedia, India), with 7% sheep erythrocytes and vitamin K (0.001 mg/ml). (Blaskovich M A T, Kavanagh A M, Elliott A G, Zhang B, Ramu S, Amado M et al. The antimicrobial potential of cannabidiol. Commun Biol 2021; 4(1):1-18).
(§2) The susceptibility of selected microbes to tested substance was verified by the microdilution method according to Clinical and Laboratory Standards Institute (M Methods for Antimicrobial Susceptibility Testing of Anaerobic Bacteria. 9th ed. CLSI standard M11. Wayne, PA: Clinical and Laboratory Standards Institute; 2018).
(§3) Basic working solutions were prepared from the tested substance by dilution in DMSO. […] The required concentrations of the tested substance were then prepared by serial dilution, dilution factor 1:2. 135 μl of each dilution was pipetted into the wells of a 96-well round-bottomed hardened polystyrene microtiter plate (Gamma České Budějovice, a.s.).
(§4) From fresh cultures of the test strains on Wilkins-Chalgren agar (WCHA; HiMedia, India), with 7% sheep erythrocytes and vitamin K, suspensions were prepared in BHI+kh at an optical density corresponding to 0.5 degrees McFarland turbidity scale (after subtraction of optical density of the medium). The suspensions were then diluted in the ratio 1:15 (final inoculum concentration 5×10^6 CFU/ml). Individual wells with 135 μl of the CBD solutions and control wells were inoculated with 15 μl of the prepared inoculum.
(§5) The inoculated microtiter plates were incubated in an Anaerobic Work Station (Ruskinn Technology, UK) with an anaerobic atmosphere (80% N2, 10% CO2 and 10% H2) at 37° C. The incubation was performed for 60 hours for P. gingivalis and 24 hours for S. mutans.
(§6) The sterility of the medium was checked by transferring 150 μl BHI+kh to three wells of a microtiter plate. […]
(§7) After evaluating the MIC, the contents of the wells with the highest concentration of CBD and with visible microbial growth were inoculated onto WCHA. […] After 48 hours (S. mutans) or 14 days (P. gingivalis) of incubation in an anaerobic atmosphere, the purity of the grown microbial culture was evaluated. […]
(§8) The growth of the microbe, which manifested itself by turbidity of the medium or as a sediment at the bottom of the well of the microtiter plate, was monitored in the individual wells of the microtiter plate. […] The minimum inhibitory concentration (MIC) was determined as the lowest concentration of the substance at which no microbial growth was observed. […]

[2] = test system: Streptococcus mutans CCM 7409; assay: MIC by microdilution method (CLSI M11), anaerobic; assay type: cell-based; settings: S. mutans, 24 h anaerobic incubation, three independent experiments
Experimental: as §1, §2, §3, §4, §5, §6, §7, §8

[3] = test system: human gingival fibroblasts (HGF); assay: MTT cytotoxicity test in human gingival fibroblasts; assay type: cell-based; settings: CBD 0.25 and 0.5 μmol/l; 24 h incubation
Experimental: In an in vitro study of the effect of cannabidiol (CBD), human gingival fibroblasts (HGF) isolated from gingiva taken from volunteers at the Department of Oral, Maxillofacial and Facial Surgery of the University Hospital and Medical Faculty of Palacký University Olomouc approved by the Ethics Committee of the University Hospital and Medical Faculty of Palacký University Olomouc (2019) were used. In the first phase of the experiment, a safe CBD concentration was determined based on the results of MTT, which is cytotoxicity test based on the reduction of 3-(4,5-dimethylthiazol-2-yl)-2,5-diphenyltetrazolium bromide (MTT) to the corresponding formazane. The test was performed according to M. D. Maines, L. G. Costa, D. J. Reed, et al. Current protocols in toxicology. New York: John Wiley & Sons. (1998).
Cells seeded in a 96-well plate at a count of 3×10^4 cells/ml and 100 μl/well, which were […], 100 μl MTT was added (0.5 mg/ml in serum-free culture medium), the mixture was incubated for 2 h. After the incubation period and aspiration of the MTT mixture, 100 μl DMSO (dimethyl sulfoxide) with NH3 (1%, v/v) was added. Absorbance was measured at 540 nm.

[4] = test system: matrix metalloproteinase (MMP-2); assay: MMP-2 production (ELISA) in HGF after P. gingivalis LPS inflammation induction; assay type: cell-based, human; settings: CBD 0.25 and 0.5 μmol/l, 6 and 24 h
Experimental: (§9) According to the values obtained from the MTT test, two subtoxic concentrations of CBD (0.25 and 0.5 μmol/l) were selected and used to determine its anti-inflammatory effect. Inflammation to HGF was induced by P. gingivalis lipopolysaccharide (LPS) according to How K. Y., Song K. P., Chan K. G., Porphyromonas gingivalis: An Overview of Periodontopathic Pathogen below the Gum Line. Front Microbiol 2016; 7:53. HGFs were seeded in 6-well plates and allowed to grow to confluence. The cells were washed with 1 ml of PBS, and then LPS (1 μg/ml, 2 ml/well) in serum-free culture medium was added, and incubated for 24 hours. A portion of the cells was left without the application of LPS (i.e., without induced inflammation). At the end of the incubation period, CBD in serum-free culture medium at concentrations of 0.25 and 0.5 μmol/l was added (2 ml/well) for 6 and 24 hours, both for cells cultured with LPS and for cells without LPS application. At selected time intervals, the culture medium was collected and stored at −80° C. for further analysis. The levels of proinflammatory interleukins IL-6, IL-8 (Human ELISA Development Kit, Cat. No. 900-K16 and 900-K18, PeproTech, Baria, Czech Republic) and matrix metalloproteinase (MMP-2) (Duo Set ELISA Development System, Cat. No. DY902, R&D, Bio-Techne, UK) were determined by ELISA. […]

IL-6 = IL-6 production (ELISA) in HGF after P. gingivalis LPS inflammation induction; assay type: cell-based, human; settings: CBD 0.25 and 0.5 μmol/l, 6 and 24 h
Experimental: as §9

IL-8 = IL-8 production (ELISA) in HGF after P. gingivalis LPS inflammation induction; assay type: cell-based, human; settings: CBD 0.25 and 0.5 μmol/l, 6 and 24 h
Experimental: as §9

gingival fibroblasts = assay: Permeation of CBD into gingival fibroblasts (UHPLC/MS); assay type: in vitro ADME, human; settings: 0.5 μM CBD
Experimental: Gingival fibroblasts (obtained from three healthy patients) were seeded in a 6-well plate (well area 9.6 cm^2) and allowed to grow until the next day (confluence). CBD was applied to the cells at a concentration of 0.5 μM for 6 and 24 hours. At the end of the incubation period, 250 μl of medium was mixed with 250 μl of methanol with 1% (w/w) HCl and the cells were washed 2× with PBS (1 ml), scraped from 4 wells into PBS (phosphate buffer, 1 ml), centrifuged for 5 minutes at 3000 rpm. After centrifugation, PBS was removed and 0.5 ml of methanol with 1% (w/w) HCl was added and the cells were sonicated (cycle 0.5, amplitude 50, 10 times). The samples were then centrifuged for 2 minutes at 8000 rpm and the supernatant was pipetted into a clean tube and subjected to UHPLC/MS analysis.
UHPLC/MS analyses were performed on an ACQUITY I Class liquid chromatograph (Waters, Milford, MA, USA). It is a modular system consisting of a chromatographic pump (Binary Solvent Manager), autosampler (Sample Manager) and column thermostat (Column Manager). Kinetex Polar C18 (100×2.1 mm i.d., 2.6 μm; Phenomenex, CA, USA) was used as the analytical column. The system was operated with a gradient elution of the mobile phase (MFA 0.1% formic acid in water, MFB 0.1% formic acid in acetonitrile) at a flow rate of 0.6 ml/min and a temperature of 25° C. The gradient elution had the following parameters: 0 to 11 min 50 to 70% MFB, 11 to 12.5 min 70 to 100% MFB, 12.5 to 13 min 100 to 50% MFB, 13 to 16 min 50% MFB. The injection volume was 2 μl.
A high resolution Synapt G2-S mass spectrometer (Waters Corp., Manchester, UK) connected to the UPLC system via an electrospray ionization (ESI) interface was used for the metabolic study. The ion source was operated in positive ionization mode with a capillary voltage of 3.0 kV and a sample cone of 30 V. The source temperature and desolvation gas temperature were set at 120° C. and 320° C. The desolvation gas flow rate was 900 l/h. […]

C=C(C)[C@@H]1CCC(C)=C[C@H]1c1c(O)cc(CCCCC)cc1O [CBD, cannabidiol]
MIC range [1]: 1 to 2 µg/mL
MIC ([1]; Porphyromonas gingivalis, CCM3985, read-out: MIC median): 1.5 µg/mL (≈ 4.77 µM)
MIC range [2]: 16 µg/mL (≈ 50.9 µM)
MIC ([2]; Streptococcus mutans, CCM7409, read-out: MIC median): 16 µg/mL (≈ 50.9 µM)
Cytotoxicity by MTT test [3]: subtoxic
MMP-2 levels [4]: no significant changes
levels of IL-6 (IL-6): decrease
levels of IL-8 (IL-8): decrease
absorption of CBD by gingival fibroblasts (gingival fibroblasts; 6 and 24 h, cell lysates): absorbed relatively quickly
CBD in the culture medium (gingival fibroblasts; 6 and 24 h incubation, UHPLC/MS): not detected
metabolites of CBD (gingival fibroblasts; after 24 h of cultivation): no metabolites of CBD were identified
